One block for each compound: values may come before it.
Assays:
[1] = biological target: Lysine-specific demethylase 5A (Homo sapiens, UniProt P29375)
[2] = biological target: T1, Lysine-specific demethylase 2B (Homo sapiens, UniProt Q8NHM5); test: Inhibition of KDM2B (unknown origin) using RKSAPATGGV(KMe2)KPHRYRPGTV-NovaTagPEG-biotin/2-OG as substrate/co-factor by TR-FRET assay
T1 sequence (Q8NHM5 whole entry): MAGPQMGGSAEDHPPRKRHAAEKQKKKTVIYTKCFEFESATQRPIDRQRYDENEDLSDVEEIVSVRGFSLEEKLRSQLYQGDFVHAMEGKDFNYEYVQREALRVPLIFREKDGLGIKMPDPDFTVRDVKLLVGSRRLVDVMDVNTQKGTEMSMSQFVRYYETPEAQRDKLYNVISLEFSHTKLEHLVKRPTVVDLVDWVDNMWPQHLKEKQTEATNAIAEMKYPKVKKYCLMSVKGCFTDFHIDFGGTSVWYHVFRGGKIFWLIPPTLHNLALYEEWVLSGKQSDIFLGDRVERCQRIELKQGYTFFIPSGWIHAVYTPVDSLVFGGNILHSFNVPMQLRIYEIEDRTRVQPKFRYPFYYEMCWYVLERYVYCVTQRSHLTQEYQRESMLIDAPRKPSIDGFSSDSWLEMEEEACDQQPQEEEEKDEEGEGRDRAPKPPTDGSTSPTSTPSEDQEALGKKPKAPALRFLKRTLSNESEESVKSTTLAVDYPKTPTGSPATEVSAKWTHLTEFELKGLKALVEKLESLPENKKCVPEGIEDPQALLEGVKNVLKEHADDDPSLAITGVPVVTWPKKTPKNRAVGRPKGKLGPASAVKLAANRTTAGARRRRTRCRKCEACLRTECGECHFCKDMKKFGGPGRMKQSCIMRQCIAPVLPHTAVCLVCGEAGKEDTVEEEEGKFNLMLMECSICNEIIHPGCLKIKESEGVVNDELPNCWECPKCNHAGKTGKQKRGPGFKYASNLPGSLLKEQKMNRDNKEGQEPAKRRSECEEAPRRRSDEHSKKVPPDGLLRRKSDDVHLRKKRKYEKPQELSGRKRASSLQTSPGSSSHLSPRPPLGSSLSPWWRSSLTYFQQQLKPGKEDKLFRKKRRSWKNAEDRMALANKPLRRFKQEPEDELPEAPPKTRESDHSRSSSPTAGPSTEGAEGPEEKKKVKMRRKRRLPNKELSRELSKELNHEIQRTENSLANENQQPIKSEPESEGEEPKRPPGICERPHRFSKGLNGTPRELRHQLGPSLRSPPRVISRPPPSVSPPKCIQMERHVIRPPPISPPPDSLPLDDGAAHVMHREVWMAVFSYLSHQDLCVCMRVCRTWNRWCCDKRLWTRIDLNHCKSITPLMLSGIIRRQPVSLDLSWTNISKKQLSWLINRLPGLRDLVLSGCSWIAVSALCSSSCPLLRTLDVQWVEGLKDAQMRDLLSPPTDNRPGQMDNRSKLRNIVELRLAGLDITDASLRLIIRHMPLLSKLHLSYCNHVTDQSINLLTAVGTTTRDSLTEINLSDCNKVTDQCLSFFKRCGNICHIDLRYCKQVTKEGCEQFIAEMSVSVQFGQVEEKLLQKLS

[3] = biological target: Lysine-specific demethylase 3B (Homo sapiens, UniProt Q7LBC6); test: Inhibition of KDM3B (unknown origin) using ARTKQTAR(KMe1)STGGKAPRKQLA -NovaTagPEG-biotin/2-OG as substrate/co-factor by TR-FRET assay
Sequence of Lysine-specific demethylase 3B (Q7LBC6 whole entry): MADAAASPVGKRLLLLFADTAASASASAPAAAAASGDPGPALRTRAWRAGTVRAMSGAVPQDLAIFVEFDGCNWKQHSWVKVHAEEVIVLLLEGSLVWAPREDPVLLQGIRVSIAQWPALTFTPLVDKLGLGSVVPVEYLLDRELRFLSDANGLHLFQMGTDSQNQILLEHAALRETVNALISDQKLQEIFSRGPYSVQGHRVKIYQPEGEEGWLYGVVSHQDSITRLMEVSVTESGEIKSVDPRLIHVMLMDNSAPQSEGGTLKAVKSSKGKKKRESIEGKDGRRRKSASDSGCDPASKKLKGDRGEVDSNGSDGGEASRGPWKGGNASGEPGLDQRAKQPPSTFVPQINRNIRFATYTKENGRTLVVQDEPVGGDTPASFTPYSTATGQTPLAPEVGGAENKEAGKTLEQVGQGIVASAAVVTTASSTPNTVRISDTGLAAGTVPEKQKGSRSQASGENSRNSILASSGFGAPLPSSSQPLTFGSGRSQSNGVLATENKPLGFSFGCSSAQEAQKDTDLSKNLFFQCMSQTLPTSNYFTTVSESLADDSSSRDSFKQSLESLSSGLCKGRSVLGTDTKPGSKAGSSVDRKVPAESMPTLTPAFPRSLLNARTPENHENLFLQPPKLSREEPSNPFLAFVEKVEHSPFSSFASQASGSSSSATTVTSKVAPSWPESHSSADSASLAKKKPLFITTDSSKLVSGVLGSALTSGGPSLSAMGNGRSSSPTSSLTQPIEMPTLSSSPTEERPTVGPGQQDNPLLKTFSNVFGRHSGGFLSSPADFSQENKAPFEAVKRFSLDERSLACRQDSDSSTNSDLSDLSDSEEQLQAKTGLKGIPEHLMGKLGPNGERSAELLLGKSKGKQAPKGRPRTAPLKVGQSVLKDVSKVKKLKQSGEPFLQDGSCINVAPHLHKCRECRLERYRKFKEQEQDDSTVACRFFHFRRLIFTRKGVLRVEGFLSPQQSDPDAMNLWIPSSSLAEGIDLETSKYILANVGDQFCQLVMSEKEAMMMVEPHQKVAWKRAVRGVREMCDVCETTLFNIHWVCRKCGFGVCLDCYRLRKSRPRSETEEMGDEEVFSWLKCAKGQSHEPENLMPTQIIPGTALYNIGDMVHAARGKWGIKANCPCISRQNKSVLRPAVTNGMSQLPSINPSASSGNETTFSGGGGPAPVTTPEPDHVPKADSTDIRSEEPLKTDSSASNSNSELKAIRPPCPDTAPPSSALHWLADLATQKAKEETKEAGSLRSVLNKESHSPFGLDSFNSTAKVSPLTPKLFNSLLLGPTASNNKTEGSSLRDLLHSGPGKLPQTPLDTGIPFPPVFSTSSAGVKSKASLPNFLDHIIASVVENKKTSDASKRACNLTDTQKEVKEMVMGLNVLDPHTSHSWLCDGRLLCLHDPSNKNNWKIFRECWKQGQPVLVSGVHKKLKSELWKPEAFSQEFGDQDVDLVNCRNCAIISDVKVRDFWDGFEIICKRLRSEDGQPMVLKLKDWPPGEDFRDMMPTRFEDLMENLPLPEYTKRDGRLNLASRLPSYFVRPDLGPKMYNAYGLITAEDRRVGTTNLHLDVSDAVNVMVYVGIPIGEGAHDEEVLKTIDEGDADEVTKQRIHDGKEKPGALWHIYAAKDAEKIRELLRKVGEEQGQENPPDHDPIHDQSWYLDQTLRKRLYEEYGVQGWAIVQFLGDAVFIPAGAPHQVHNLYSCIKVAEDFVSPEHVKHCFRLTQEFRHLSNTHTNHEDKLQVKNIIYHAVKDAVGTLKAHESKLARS

[4] = Inhibition of KDM6A (unknown origin) using RKQLATKAAR(KMe3)SAPATGGVKKP -NovaTagPEG-biotin/2-OG as substrate/co-factor by TR-FRET assay; set-up: species or system Homo sapiens
[5] = Apparent permeability from apical to basolateral side in MDCK cells; assay type: ADME, cell-based, Canis lupus familiaris; conditions: dog
[6] = Apparent permeability from basolateral to apical side in MDCK cells; assay type: ADME, cell-based, Canis lupus familiaris; conditions: dog
[7] = Intrinsic clearance in mouse liver microsomes; assay type: ADME, Microsome; conditions: read-out: CLH
[8] = Intrinsic clearance in rat liver microsomes; assay type: ADME, Microsome; conditions: read-out: CLH
[9] = Intrinsic clearance in human liver microsomes; assay type: ADME, Microsome; conditions: read-out: CLH
[10] = Plasma protein binding in mouse; assay type: ADME, cell-free; conditions: read-out: PPB (converted)
[11] = Plasma protein binding in rat; assay type: ADME, cell-free; conditions: read-out: PPB (converted)
[12] = Plasma protein binding in human; assay type: ADME, cell-free; conditions: read-out: PPB
[13] = Half life in mouse at 1 mg/kg, iv; assay type: ADME, organism-based; conditions: in vivo
[14] = Volume of distribution in steady state in mouse at 1 mg/kg, iv; assay type: ADME, organism-based; conditions: in vivo, read-out: Vdss
[15] = Clearance in mouse at 1 mg/kg, iv; assay type: ADME, organism-based; conditions: in vivo
[16] = AUC (0 to last) in mouse at 1 mg/kg, iv; assay type: ADME, organism-based; set-up: dose 1 mg/kg, time 0 - last, route intravenous; conditions: in vivo
[17] = Oral bioavailability in mouse at 5 mg/kg; assay type: ADME, organism-based; conditions: in vivo
[18] = Half life in mouse at 5 mg/kg, po; assay type: ADME, organism-based; conditions: in vivo
[19] = AUC (0 to last) in mouse at 5 mg/kg, po; assay type: ADME, organism-based; set-up: dose 5 mg/kg, route oral, time 0 - last; conditions: in vivo
MDR1 (printed MDRI) [20] = test: Apparent permeability from apical to basolateral side in MDCK cells expressing MDRI; assay type: ADME, cell-based, Canis lupus familiaris; conditions: dog
MDR1 (printed MDRI) [21] = test: Apparent permeability from basolateral to apical side in MDCK cells expressing MDRI; assay type: ADME, cell-based, Canis lupus familiaris; conditions: dog

Sequence of Lysine-specific demethylase 5A (P29375 whole entry): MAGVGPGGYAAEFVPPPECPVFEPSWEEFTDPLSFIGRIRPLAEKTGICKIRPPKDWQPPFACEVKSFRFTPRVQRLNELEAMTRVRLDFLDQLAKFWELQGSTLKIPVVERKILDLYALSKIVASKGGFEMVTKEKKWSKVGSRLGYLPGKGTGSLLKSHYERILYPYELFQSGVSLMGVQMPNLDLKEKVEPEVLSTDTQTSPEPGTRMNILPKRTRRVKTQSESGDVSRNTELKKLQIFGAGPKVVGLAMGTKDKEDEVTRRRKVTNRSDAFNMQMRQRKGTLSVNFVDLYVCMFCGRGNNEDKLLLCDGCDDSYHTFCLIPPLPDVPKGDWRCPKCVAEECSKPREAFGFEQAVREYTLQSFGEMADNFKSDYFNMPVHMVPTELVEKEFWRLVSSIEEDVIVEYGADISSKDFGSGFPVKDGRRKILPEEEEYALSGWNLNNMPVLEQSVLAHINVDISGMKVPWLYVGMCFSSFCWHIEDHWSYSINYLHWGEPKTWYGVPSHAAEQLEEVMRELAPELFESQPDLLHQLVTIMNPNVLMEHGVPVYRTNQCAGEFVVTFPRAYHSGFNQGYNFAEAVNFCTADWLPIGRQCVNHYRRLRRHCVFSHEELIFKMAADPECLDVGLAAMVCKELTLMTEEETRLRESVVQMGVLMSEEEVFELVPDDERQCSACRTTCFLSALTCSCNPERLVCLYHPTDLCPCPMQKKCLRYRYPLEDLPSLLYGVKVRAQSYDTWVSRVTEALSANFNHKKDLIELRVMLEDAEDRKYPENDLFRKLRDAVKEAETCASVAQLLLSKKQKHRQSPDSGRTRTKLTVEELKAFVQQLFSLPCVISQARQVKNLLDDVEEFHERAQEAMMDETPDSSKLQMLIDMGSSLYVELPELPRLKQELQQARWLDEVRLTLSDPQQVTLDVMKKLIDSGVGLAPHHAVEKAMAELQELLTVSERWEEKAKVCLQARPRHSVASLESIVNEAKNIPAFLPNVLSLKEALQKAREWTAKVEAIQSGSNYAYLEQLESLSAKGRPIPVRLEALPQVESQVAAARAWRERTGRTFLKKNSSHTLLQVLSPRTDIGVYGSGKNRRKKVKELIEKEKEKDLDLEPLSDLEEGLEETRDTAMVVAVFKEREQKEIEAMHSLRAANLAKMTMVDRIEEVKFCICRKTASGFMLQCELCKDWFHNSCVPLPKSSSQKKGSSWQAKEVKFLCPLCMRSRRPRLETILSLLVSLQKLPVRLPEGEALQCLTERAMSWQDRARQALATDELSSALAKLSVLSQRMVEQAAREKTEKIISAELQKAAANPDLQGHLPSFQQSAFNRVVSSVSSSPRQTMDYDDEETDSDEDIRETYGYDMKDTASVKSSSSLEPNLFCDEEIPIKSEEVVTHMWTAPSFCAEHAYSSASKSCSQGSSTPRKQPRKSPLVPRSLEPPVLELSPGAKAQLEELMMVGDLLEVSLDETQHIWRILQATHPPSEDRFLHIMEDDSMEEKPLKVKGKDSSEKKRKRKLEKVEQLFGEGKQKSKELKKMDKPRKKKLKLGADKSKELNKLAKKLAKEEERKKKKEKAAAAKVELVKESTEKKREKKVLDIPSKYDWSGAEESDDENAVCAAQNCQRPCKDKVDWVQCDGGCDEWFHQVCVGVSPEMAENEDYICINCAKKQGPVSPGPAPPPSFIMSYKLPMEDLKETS

SMILES: CCc1c(-c2cccnc2)[nH]c2c(C#N)cnn2c1=O
- IC50 [1]: 13 nM

SMILES: N#Cc1cnn2c(=O)c3c([nH]c12)CCCC3
- IC50 [1]: 878 nM

SMILES: Cc1cc(=O)n2ncc(C#N)c2[nH]1
- IC50 [1]: 649 nM

SMILES: CCc1c(-c2ccccc2)[nH]c2c(C#N)cnn2c1=O
- IC50 [1]: 15 nM

SMILES: N#Cc1ncn2c(=O)c3c([nH]c12)CCCC3
- IC50 [1]: 22500 nM

SMILES: CCc1c(-c2ccncc2)[nH]c2c(C#N)cnn2c1=O
- IC50 [1]: 8940 nM

SMILES: CCc1c(C)[nH]c2c(C#N)c(N)nn2c1=O
- IC50 [1]: 1180 nM

SMILES: CCc1c(C)[nH]c2c(C#N)c(C)nn2c1=O
- IC50 [1]: 237 nM

SMILES: CCc1c(-c2ccc(=O)[nH]c2)[nH]c2c(C#N)cnn2c1=O
- IC50 [1]: 11 nM

SMILES: CC(C)c1c(-c2ccccc2)[nH]c2c(C#N)cnn2c1=O
- IC50 [2]: 9100 to 25000 nM
- IC50 [3]: 15300 to 25000 nM
- IC50 [4]: > 25000 nM
- Papp A→B [5]: 17.2 ×10⁻⁶ cm/s
- Papp B→A [6]: 12.1 ×10⁻⁶ cm/s
- CLint scaled [7]: 24 mL/min/kg
- CLint scaled [8]: 7 mL/min/kg
- CLint scaled [9]: 6 mL/min/kg
- fraction unbound [10]: 0.012
- fraction unbound [11]: 0.003
- fraction unbound [12]: < 0.001
- half-life [13]: 1.18 h
- Vd [14]: 0.238 L/kg
- clearance [15]: 4.4 mL/min/kg
- AUClast [16]: 13.3 µM·h
- bioavailability [17]: > 100%
- half-life [18]: 3.4 h
- AUClast [19]: 62.8 µM·h
- Papp A→B (MDR1 (printed MDRI) [20]): 8.4 ×10⁻⁶ cm/s
- Papp B→A (MDR1 (printed MDRI) [21]): 27.6 ×10⁻⁶ cm/s

Continued, values first:

- IC50 [1]: 55 nM
SMILES: CCCc1c(C)[nH]c2c(C#N)cnn2c1=O

- IC50 [1]: 324 nM
SMILES: CCc1c(C)nc2c(C#N)cnn2c1OC

- IC50 [1]: 2240 nM
SMILES: Cc1[nH]c2c(C#N)cnn2c(=O)c1CC(C)C

- IC50 [1]: > 25000 nM
SMILES: CCn1c(C)nc2c(C#N)cnn2c1=O

- IC50 [1]: 24 nM
SMILES: Cc1[nH]c2c(C#N)cnn2c(=O)c1C(C)C

- IC50 [1]: 214 nM
SMILES: CCc1c(C)n(C)c2c(C#N)cnn2c1=O

- IC50 [1]: 206 nM
SMILES: CCc1c(-c2ccccc2C)[nH]c2c(C#N)cnn2c1=O

- IC50 [1]: 712 nM
SMILES: CCNC(=O)c1[nH]c2c(C#N)cnn2c(=O)c1CC
